Reference: BindingDB's records for doi:10.1016/j.bmcl.2019.04.009 (Wannan Medical College, 2019)

Molecular target: Epidermal growth factor receptor (Homo sapiens, UniProt P00533)
Assay: Inhibition of EGFR L858R mutant (unknown origin) using polyE4Y1 as substrate measured after 60 mins

Epidermal growth factor receptor, sequence (P00533 25-1210 L858R limits assumed): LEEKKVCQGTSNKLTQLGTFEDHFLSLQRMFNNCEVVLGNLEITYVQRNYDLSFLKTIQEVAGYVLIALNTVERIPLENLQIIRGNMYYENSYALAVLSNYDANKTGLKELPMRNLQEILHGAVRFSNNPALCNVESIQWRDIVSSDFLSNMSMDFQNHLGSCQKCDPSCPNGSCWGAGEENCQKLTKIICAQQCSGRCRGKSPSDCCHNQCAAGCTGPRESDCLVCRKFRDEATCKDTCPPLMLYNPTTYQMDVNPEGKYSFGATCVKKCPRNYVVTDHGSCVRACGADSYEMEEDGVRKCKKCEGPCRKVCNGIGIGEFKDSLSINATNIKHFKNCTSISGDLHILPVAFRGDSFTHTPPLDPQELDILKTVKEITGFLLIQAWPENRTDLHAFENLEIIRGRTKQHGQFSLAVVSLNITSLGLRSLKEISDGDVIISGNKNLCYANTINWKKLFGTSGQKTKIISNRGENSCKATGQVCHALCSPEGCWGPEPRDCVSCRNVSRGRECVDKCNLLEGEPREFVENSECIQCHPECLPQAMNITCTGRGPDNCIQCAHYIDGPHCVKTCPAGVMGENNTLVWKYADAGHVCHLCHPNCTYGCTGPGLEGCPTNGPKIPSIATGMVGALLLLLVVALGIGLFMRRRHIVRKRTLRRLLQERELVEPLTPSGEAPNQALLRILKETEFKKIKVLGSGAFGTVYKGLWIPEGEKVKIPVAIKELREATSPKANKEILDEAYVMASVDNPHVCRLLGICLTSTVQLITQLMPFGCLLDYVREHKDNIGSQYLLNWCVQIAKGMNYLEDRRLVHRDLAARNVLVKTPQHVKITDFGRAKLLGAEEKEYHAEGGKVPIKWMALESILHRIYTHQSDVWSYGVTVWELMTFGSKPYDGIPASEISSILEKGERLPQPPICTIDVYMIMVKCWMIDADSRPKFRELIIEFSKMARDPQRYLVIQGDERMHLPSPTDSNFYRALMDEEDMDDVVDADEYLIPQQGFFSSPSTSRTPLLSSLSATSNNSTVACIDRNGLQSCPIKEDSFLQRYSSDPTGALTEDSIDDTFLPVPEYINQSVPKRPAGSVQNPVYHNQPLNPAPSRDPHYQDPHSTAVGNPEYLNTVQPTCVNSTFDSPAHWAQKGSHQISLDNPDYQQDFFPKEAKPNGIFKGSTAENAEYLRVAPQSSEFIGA

C[C@H]1[C@H](C)CC[C@]2(C(=O)O)CC[C@]3(COC(=O)/C=C/c4ccc(O)cc4)C(=CC[C@@H]4[C@@]5(C)CC[C@H](O)C(C)(C)[C@@H]5CC[C@]43C)[C@H]12 [27-trans-p-coumaroyloxyursolic acid]
IC50: 56 nM
